From patent publication EP4806443A1, “ANTICANCER AGENT KIT” (Nihon Trim Co., Ltd., priority 2023, dated 2025)

What was measured:
Assay type in all cases: cell-based, Human
[1] = test system: HeLa cells in which ATG7 was knocked out (ATG7 KO); assay: Apoptosis induction (Cell Death Detection […]), HeLa ATG7 KO; conditions: doxorubicin 1 or 2 µM, 24 hours; ATG7 KO compared with ATG7 WT (FIG. 7)
Method: Apoptosis induction was assessed using Cell Death Detection [sequence] (Roche Diagnostics, Basel, Switzerland) according to the manual. HeLa cells (ATG7 WT) or HeLa cells in which ATG7 was knocked out (ATG7 KO) were seeded into a 12-well plate at 1.0 × 10^5 cells/well and cultured (precultured) in DMEM under the conditions of 37°C and 5% CO2 for 24 hours. After the preculture, the medium was exchanged with DMEM supplemented with an anticancer agent containing doxorubicin at a predetermined concentration (1 or 2 µM), and the cells were cultured for 24 hours. The cells were then lysed with a lysis buffer, and the lysate was added to each well of the ELISA plate, incubated with an immunological reagent buffer containing anti-histone biotin and anti-DNA POD for 2 hours, and washed with an incubation buffer. Then, the resultant was reacted with 100 µL of an ABTS substrate buffer, and the absorbance was measured at 405 nm and 490 nm.
Apoptosis induction was assessed using Cell Death Detection [sequence] (Roche Diagnostics, Basel, Switzerland) according to the manual. […] Then, the resultant was reacted with 100 µL of an ABTS substrate buffer, and the absorbance was measured at 405 nm and 490 nm.

[2] = test system: HeLa cells in which ATG7 (autophagy-related gene) was knocked out (ATG7 KO); assay: Cell growth inhibitory effect (Cell Counting Kit-8), HeLa ATG7 KO; conditions: 24 hours
Method: The results are shown in FIGS. 8 (ATG7 WT) and 9 (ATG7 KO).
FIGS. 20 and 21 show the results.
In FIGS. 20 and 21, HW represents DMEM (produced hydrogen water medium) containing produced hydrogen water with a dissolved hydrogen concentration of 0 ppm to 4 ppm, and HW + DOX represents the DMEM (produced hydrogen water medium) to which 0.5 µM doxorubicin was added.
The results are shown in FIGS. 26 (ATG7 WT) and 27 (ATG7 KO).

[3] = test system: HeLa cells expressing a GFP-LC3-RFP-LC3ΔG probe; assay: Autophagic activity based on GFP/RFP ratio (flow cytometry), HeLa
Method: Then, the cells were detached and suspended, and the fluorescence intensities of GFP and RFP were analyzed by flow cytometry. The autophagic activity was quantitatively analyzed by determining the GFP/RFP ratio.
A1-containing filtered-water medium) containing 200 nM Baf.
The GFP-LC3-RFP-LC3ΔG probe (or a GFP-LC3-RFP probe described later) is described in, for example, the following paper. The GFP-LC3-RFP-LC3ΔG probe (or GFP-LC3-RFP probe) is cleaved by ATG4, and the same number of GFP-LC3 and RFP-LC3ΔG (or RFP) are produced in the cytoplasm. GFP-LC3 is localized in the autophagosomes, and then quenched and degraded in the autolysosomes. RFP-LC3ΔG (or RFP) remains in the cytoplasm and serves as an internal control reflecting the amount of GFP-LC3. The GFP/RFP ratio is obtained by quantifying the cumulative amount of degradation of GFP-LC3 by autophagy. A decrease in the GFP/RFP ratio indicates autophagy activation. An increase in the GFP/RFP ratio indicates autophagy inhibition. […]
(§1) Then, the cells were detached and suspended in the same manner as described in the section (2-3), and the fluorescence intensities of GFP and RFP were analyzed by flow cytometry. The autophagic activity was quantitatively analyzed by determining the GFP/RFP ratio.

Caco-2 cells = assay: Cell growth inhibitory effect (Cell Counting Kit-8), Caco-2; conditions: doxorubicin 1, 2, or 4 µM in serum-free medium (autophagy activating conditions), 24 hours (FIG. 12)
Method: FIGS. 12 to 15 show the results.
In FIG. 12, DOX + serum free represents DMEM with no serum (serum-free medium) to which doxorubicin was added at a predetermined concentration (1, 2, or 4 µM), DOX represents serum-containing DMEM with doxorubicin added at a predetermined concentration, and DOX + Baf. represents a medium (Baf. A1-containing medium) containing 200 nM Bafilomycin A1 (Baf. A1) dissolved in serum-containing DMEM, to which doxorubicin was added at the predetermined concentration.
In FIG. 15, FW (Medium + Baf. A1) represents a medium (Baf. A1-containing filtered-water medium) containing 200 nM Baf.

[4] = test system: HCT116 cells expressing the GFP-LC3-RFP probe; assay: Autophagic activity based on GFP/RFP ratio (flow cytometry), HCT116; conditions: fluorouracil 1 or 10 µM, 24 hours (FIG. 25)
Method: as §1

COc1cccc2c1C(=O)c1c(O)c3c(c(O)c1C2=O)C[C@@](O)(C(=O)CO)C[C@@H]3O[C@H]1C[C@H](N)[C@H](O)[C@H](C)O1 [doxorubicin]
apoptosis induction [1]: enhanced
cell growth inhibitory effect ([2]; doxorubicin 1, 2, or 4 µM, ATG7 KO compared with ATG7 WT (FIG. 6)): enhanced
GFP/RFP ratio ([3]; doxorubicin 1, 2, or 4 µM, 4 hours, a decrease indicates autophagy activation (FIG. 5)): decreased as the doxorubicin concentration increased
cell growth inhibitory effect of doxorubicin (Caco-2 cells): rather reduced

O=c1[nH]cc(F)c(=O)[nH]1 [fluorouracil]
GFP/RFP ratio [4]: decreased as the fluorouracil concentration increased

CC(=O)O[C@H]1C(=O)[C@@]2(C)[C@H]([C@H](OC(=O)c3ccccc3)[C@]3(O)C[C@H](OC(=O)[C@H](O)[C@@H](NC(=O)c4ccccc4)c4ccccc4)C(C)=C1C3(C)C)[C@]1(OC(C)=O)CO[C@@H]1C[C@@H]2O [paclitaxel]
anticancer effect (cell growth inhibitory effect) ([2]; paclitaxel 1, 10, or 50 nM, ATG7 KO compared with ATG7 WT (FIG. 24)): enhanced
GFP/RFP ratio ([3]; paclitaxel 1, 5, or 10 nM, 24 hours (FIG. 23)): decreased as the paclitaxel concentration increased
